Among the data in patent US7049311B1, “Pyrrolbenzodiazepines” (Spirogen Limited, priority 1998, dated 2006) are CC50 and IC50 values, retold here.

Like-named read-outs stand apart in the source and are kept apart here.

One experiment relates to MDA-N. Briefly: NCI in vitro cytotoxicity screen. The experiment is classed as cell-based. As to conditions: Homo sapiens, 48 h, read-out: LC50. As to the method: (§1) The National Cancer Institute (NCI), Bethesda, Md., USA has available an in vitro cytotoxicity screen which consists of approximately 60 human tumour cell lines against which compounds are tested at a minimum of five concentrations each differing 10-fold. A 48 hour continuous exposure protocol is used, where cell viability or growth is estimated with an SRB protein assay.
(§2) The test compounds were evaluated against approximately 60 human tumour cell lines. The NCI screening procedures were described in detail by Monks and co-workers (Monks, A et al., Journal of the National Cancer Institute, 1991, 83, 757). Briefly, cell suspensions were diluted according to the particular cell type and the expected target cell density (5000-40,000 cells per well based on cell growth characteristics), and added by pipette (100 μL) into 96-well microtitre plates. The cells were allowed a preincubation period of 24 hours at 37° C. for stabilisation. Dilutions at twice the intended test concentration were added at time zero in 100 μL aliquots to the wells. The test compounds were evaluated at five 10-fold dilutions (10^−4, 10^−5, 10^−6, 10^−7 and 10^−[…]). The test compounds were incubated for 48 hours in 5% CO2 atmosphere and 100% humidity. The cells were then assayed using the sulphorhodamine B assay. A plate reader was used to read the optical densities and a microcomputer processed the readings into LC50 values, which is the dosage required to kill half of the cells.

A further experiment deals with NCI-H226. Put plainly: NCI in vitro cytotoxicity screen. The class given is cell-based. As to conditions: Homo sapiens, NCI-H226, 48 h, read-out: LC50. As to the method:
as §1, §2

A further experiment deals with MDA-MB-435. Put plainly: NCI in vitro cytotoxicity screen. The class given is cell-based. The following applies: Homo sapiens, MDA-MB-435, 48 h, read-out: LC50. As to the method: as §1, §2
A further experiment concerns SK-MEL-28. Put plainly: NCI in vitro cytotoxicity screen. The experiment is classed as cell-based. The following applies: Homo sapiens, SK-MEL-28, 48 h, read-out: LC50. The protocol:
as §1, §2

The next experiment relates to KM12. Put plainly: NCI in vitro cytotoxicity screen. The experiment is classed as cell-based. The following applies: Homo sapiens. The protocol: as §1, §2
The test system of another experiment is SK-MEL-5. Briefly: NCI in vitro cytotoxicity screen. The class given is cell-based. The following applies: Homo sapiens, SK-MEL-5, 48 h, read-out: LC50. As to the method: as §1, §2
For a further experiment, the system named is SK-MEL-2. Briefly: NCI in vitro cytotoxicity screen. The experiment is classed as cell-based. As to conditions: Homo sapiens, SK-MEL-2, 48 h, read-out: LC50. As to the method: as §1, §2
The next experiment relates to UACC-62. Briefly: NCI in vitro cytotoxicity screen. The experiment is classed as cell-based. The following applies: Homo sapiens, UACC-62, 48 h, read-out: LC50. As to the method:
as §1, §2

For another experiment, the system named is NCI-H522. Put plainly: NCI in vitro cytotoxicity screen. The class given is cell-based. The following applies: Homo sapiens, NCI-H522, 48 h, read-out: LC50. The protocol:
as §1, §2

Another experiment has as its system RXF 393. Put plainly: NCI in vitro cytotoxicity screen. The experiment is classed as cell-based. As to conditions: Homo sapiens, RXF 393, 48 h, read-out: LC50. As to the method: as §1, §2
A further experiment relates to HCC-2998. Put plainly: NCI in vitro cytotoxicity screen. The class given is cell-based. The following applies: Homo sapiens, HCC 2998, 48 h, read-out: LC50. As to the method:
as §1, §2

A further experiment deals with COLO 205. Put plainly: NCI in vitro cytotoxicity screen. As to conditions: Homo sapiens, COLO 205, 48 h, read-out: LC50. The experiment is classed as cell-based. As to the method:
as §1, §2

A further experiment deals with MALME-3M. Put plainly: NCI in vitro cytotoxicity screen. As to conditions: Homo sapiens, Malme-3M, 48 h, read-out: LC50. The class given is cell-based. The protocol: as §1, §2
A further experiment has as its system SF-539. Put plainly: NCI in vitro cytotoxicity screen. The following applies: Homo sapiens, SF-539, 48 h, read-out: LC50. The class given is cell-based. As to the method:
as §1, §2

In the next experiment the test system is A2780cisR. Put plainly: Ovarian carcinoma cytotoxicity assay. The experiment is classed as cell-based, human. As to conditions: Homo sapiens, A2780cisR. The gist of the method:
(§3)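 Cells attached overnight, then read 96 hours later by sulphorhodamine B staining of TCA-fixed cells, with absorbance at 540 nm. IC50 taken from concentration versus % absorbance relative to untreated wells; cisR lines are cisplatin-resistant.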

The test system of the next experiment is A2780. Briefly: Ovarian carcinoma cytotoxicity assay. The class given is cell-based, human. As to conditions: Homo sapiens. The gist of the method:
as §3

The subject of another experiment is SKOV-3. Briefly: Ovarian carcinoma cytotoxicity assay. The class given is cell-based. The following applies: Homo sapiens. A digest of the protocol: as §3
The next experiment deals with CH1cisR. Put plainly: Ovarian carcinoma cytotoxicity assay. The class given is cell-based. As to conditions: Homo sapiens, CH1cisR. The gist of the method: as §3
A further experiment relates to CH1. Briefly: Ovarian carcinoma cytotoxicity assay. As to conditions: Homo sapiens. The class given is cell-based. A digest of the protocol:
as §3

A further experiment concerns SNB-75. Put plainly: NCI in vitro cytotoxicity screen. The experiment is classed as cell-based. As to conditions: Homo sapiens, SNB-75, 48 h, read-out: LC50. The protocol: as §1, §2
The next experiment relates to HS 578T. Put plainly: NCI in vitro cytotoxicity screen. The class given is cell-based. As to conditions: Homo sapiens; HS 578T (Breast), 48 hour exposure, SRB assay; read-out: LC50 (the source's name). The protocol: as §1, §2
Another experiment deals with LOX IMVI. Briefly: NCI in vitro cytotoxicity screen. The class given is cell-based. The following applies: Homo sapiens, 48 h, read-out: LC50. The protocol:
as §1, §2

The test system of a further experiment is M14. Put plainly: NCI in vitro cytotoxicity screen. The experiment is classed as cell-based. The following applies: Homo sapiens, M14, 48 h, read-out: LC50. As to the method:
as §1, §2

Another experiment concerns SF-295. Put plainly: cells. The class given is cell-based. As to conditions: Homo sapiens, SF-295, 48 h, read-out: LC50. As to the method: as §1
as §2, with “The test compounds were incubated for 48 hours in 5% CO2 atmosphere and 100% humidity. The cells were then assayed using the sulphorhodamine B assay.” left out

As to `C=C1C[C@H]2C=Nc3ccc(I)cc3C(=O)N2C1` [UP2023 (64), (11as)-7-Iodo-2-methylidene-1,2,3,11a-tetrahydro-5H-pyrrolo[2,1-c][1,4]benzodiazepin-5-one], the CC50 worked out at 6.6 µM in the experiment on MDA-N; 9.1 µM in the experiment with NCI-H226; 7.6 µM in the experiment with MDA-MB-435; 8.4 µM with SK-MEL-28; 7.1 µM in the experiment with KM12 (KM12, 48 h, read-out: LC50); 6 µM in the experiment on SK-MEL-5. For the same molecule, the CC50 in the experiment with SK-MEL-2 was determined as 7.4 µM; in the experiment on UACC-62, 7.2 µM; in the experiment on NCI-H522, 5.2 µM; with RXF 393 it was 6.1 µM; in the experiment with HCC-2998, 7 µM; with COLO 205 it was 5.8 µM. Besides, the CC50 in the experiment with MALME-3M was found to be 7.8 µM; in the experiment on SF-539, 9.4 µM. Also, the IC50 in the experiment on A2780cisR (cisplatin-resistant, 96 hours, sulphorhodamine B, read-out: IC50 A2780cisR) is 1.45 µM; in the experiment on A2780 (A2780, 96 hours, sulphorhodamine B, read-out: IC50 A2780) it was 0.49 µM; in the experiment with SKOV-3 (SK-OV-3, 96 hours, sulphorhodamine B, read-out: IC50 Skov3), 16 µM; in the experiment on CH1cisR (cisplatin-resistant, 96 hours, sulphorhodamine B, read-out: IC50 CH1cisR), 0.43 µM; in the experiment on CH1 (CH1, 96 hours, sulphorhodamine B, read-out: IC50 CH1), 0.37 µM.

In the case of `Nc1ccc2c(c1)N=C[C@@H]1CCCN1C2=O` [UP2028 (151), (11aS)-8-amino-1,2,3,11a-tetrahydro-5H-pyrrolo[2,1-c][1,4]benzodiazepin-5-one], the CC50 in the experiment with MDA-MB-435 stood at 7.2 µM; in the experiment with SK-MEL-28 it was 8.1 µM; with SNB-75, 8.2 µM; in the experiment on KM12 (KM12 (Colon), 48 hour exposure, SRB assay, read-out: LC50 (the source's name)), 8.8 µM; with SK-MEL-2 it was 5.4 µM; in the experiment with NCI-H522, 0.8 µM. The CC50 was found to be 0.7 µM in the experiment on RXF 393, 5 µM in the experiment on COLO 205, 5.7 µM in the experiment with MALME-3M and 9.2 µM in the experiment on HS 578T.

`COc1cc2c(cc1OCCC(=O)N1CCCC1)N=C[C@@H]1CCCN1C2=O` [UP2005 (161), 3-(7-methoxy-5-oxy(11aS)-2,3,5,11a-tetrahydro-1H-benzo[e]pyrrolo[1,2-a][1,4]diazepin-8-yloxy)-1-perhydro-1-pyrrolyl-1-propanone]: the CC50 in the experiment with SK-MEL-28 came to 6.5 µM; in the experiment on LOX IMVI, 9.2 µM; in the experiment with SK-MEL-2 it was 7.6 µM; in the experiment on NCI-H522, 8.7 µM; with RXF 393, 6.8 µM; in the experiment on MALME-3M, 7.5 µM. Further, the CC50 with M14 turned out to be 6.2 µM; in the experiment on SF-539 it was 7.7 µM; with SF-295, 8.8 µM. In addition, the half-inhibitory concentration (IC50) turned out to be 4.3 µM in the experiment on A2780cisR (96 h, read-out: IC50 A2780cisR, cisplatin-resistant, 96 hours, sulphorhodamine B); 1.5 µM in the experiment with A2780 (A2780, 96 h, read-out: IC50 A2780, 96 hours, sulphorhodamine B); 5.4 µM in the experiment on SKOV-3 (SK-OV-3, 96 h, read-out: IC50 Skov3, 96 hours, sulphorhodamine B); 1.85 µM with CH1cisR (96 h, read-out: IC50 CH1cisR, cisplatin-resistant, 96 hours, sulphorhodamine B); 1.4 µM with CH1 (CH1, 96 h, read-out: IC50 CH1, 96 hours, sulphorhodamine B).

The IC50 is the midpoint of a concentration-inhibition curve.
